Data as given in patent US20170329062A1, “OPTICAL FILM AND FLEXIBLE DEVICE USING THE OPTICAL FILM” (SUMITOMO CHEMICAL COMPANY, LIMITED, priority 2016, published 2017).

Assays:
[1] = Solubility of ultraviolet absorbent in N,N-dimethylacetamide at 25° C.; format: physicochemical
[2] = Molar extinction coefficient of ultraviolet absorbent in 20 mg/L toluene solution; format: physicochemical
Protocol: (manufactured by JASCO Corporation) Measured Concentration: 20 mg/L Solvent: toluene

Compound	Solubility at 25° C. with respect to DMAc [1] [g/100 g-DMAc]	Molar extinction coefficient 360 nm [2]	Molar extinction coefficient 370 nm [2]	Molar extinction coefficient 380 nm [2]	Molar extinction coefficient 390 nm [2]	Molar extinction coefficient 400 nm [2] [L/mol/cm]	Molar extinction coefficient 420 nm [2] [L/mol/cm]
CCCCC(CC)C(=O)OCCOc1ccc(-c2nc(-c3ccccc3)nc(-c3ccccc3)n2)c(O)c1 (stereo not shown) [LA46, 2-(4,6-diphenyl-1,3,5-triazine-2-yl)-5-[2-(2-ethylhexanoyloxy)ethoxy]phenol]	>10	10000 L/mol/cm	3,000 L/mol · cm	160 L/mol/cm	<50 L/mol/cm	<30	<30
CCC(C)(C)c1cc(-n2nc3ccccc3n2)c(O)c(C(C)(C)CC)c1 [Sumisorb 350, 2-(2-hydroxy-3,5-di-tert-pentylphenyl)benzotriazole]	>10	13,900 L/mol · cm	9,700 L/mol · cm	4,800 L/mol · cm	1,200 L/mol · cm	210	<50
CC(C)(C)CC(C)(C)c1ccc(O)c(-n2nc3ccccc3n2)c1 [Sumisorb 340, 2-(2-hydroxy-5-tert-octylphenyl)benzotriazole]	>10	13,100 L/mol · cm	7,700 L/mol · cm	2,200 L/mol · cm	320 L/mol/cm	<50	<50
CC(C)(C)CC(C)(C)c1cc(Cc2cc(C(C)(C)CC(C)(C)C)cc(-n3nc4ccccc4n3)c2O)c(O)c(-n2nc3ccccc3n2)c1 [LA31, 2,2′-methylenebis[6-(2H-benzotriazole-2-yl)-4-(1,1,3,3-tetramethylbutyl)phenol]]	>10	27,300 L/mol · cm	19,800 L/mol · cm	9,000 L/mol · cm	1,400 L/mol · cm	<50	<50
